Series [1] is described as follows: Bioavailability / pharmacokinetics after oral gavage in rats. The settings on record: Sprague-Dawley, 80 mg/kg, HES in rat plasma, equivalent to 80 mg HES/kg. Format: in vivo. As for the experimental part:
Eighteen Sprague–Dawley rats weighing 220–250 g were randomly divided into three groups (n = 6), fasted for 12 h but freely given water before the experiment. The HES, the physical mixture of HES and PIP, and the HES–PIP cocrystal were delivered by gavage at a dose equivalent to 80 mg of the HES/kg body weight of the animal as a suspension in water. Next, 500 µL blood was withdrawn and placed in a centrifuge tube with heparin from the eye sockets of rats at 0.25 h, 0.5 h, 1 h, 2 h, 4 h, 6 h, 8 h, 12 h, 24 h, and 48 h after oral administration. The plasma was separated by centrifugation (4000 rpm, 15 min) and saved at −80 °C until analysis. Next, 100 µL of plasma sample was added into 400 μL of methanol and vortexed for 5 min to fully precipitate the protein [44], then centrifuged at 10,000 rpm for 10 min. The supernatant was then transferred to another tube and evaporated to remove the solvent under a stream of nitrogen. The residual solid was then dissolved in methanol with vortex oscillation for 3 min, and the mixture was centrifuged at 10,000 rpm for 10 min. Finally, the supernatant was analyzed via HPLC method for HES content. PK parameters were obtained on the basis of a model-independent method using DAS 2 program.

A short description of series [2]: Solubility experiment in simulated gastrointestinal fluid. Format: physicochemical. The conditions noted are these: thermodynamic from solid, 100 rpm. As for the experimental part:
The solubility of the HES–PIP cocrystal in simulated gastrointestinal fluid was measured in the present study following the method described in the literature but slightly modified. The samples were previously milled and sieved (75–150 μm) before examination to reduce the effect of the crystal’s size on its solubility behavior. A specific amount (containing 25 mg of HES) of the HES–PIP cocrystal was weighed and added into a centrifuge tube containing 5 mL dissolving medium, and the suspension was incubated at 37 ± 0.2 °C rotating at 100 rpm. Taking a tube at 0.25 h, 0.5 h, 1 h, 2 h, 4 h, 6 h, 8 h, 12 h, 24 h, and 48 h, the samples were centrifuged at 12,000 rpm for 5 min, and the supernatant was diluted with methanol and analyzed by HPLC. The cocrystal’s solubility at different times was compared with that of raw HES. […] The residual solid in each tube was also analyzed by PXRD.
The cocrystal’s supersaturation factor (SF) was calculated through the drug supersaturation–time curve following the method presented in a previous study, and the calculation formula is as follows:(1) SF=AUC0.25−48 h(Cocrystal)/AUC0.25−48 h(Hesperetin) where SF is the supersaturation factor, AUC0.25–48 h (Cocrystal) is the area under the curve of the cocrystal supersaturation–time profile, and AUC0.25–48 h (Hesperetin) is the area under the curve for a saturated solution.

In brackets after ≈: the same amount, converted by molar mass.

What is called AUC(0-t) is the area under the concentration-time curve up to a stated or last time point. A word on the Tmax: it is the time from dosing to the highest level. For orientation: half-life means the time in which the quantity being followed falls by half. Usually Cmax stands for the highest concentration seen after dosing. For orientation: solubility means the dissolved amount per volume that the medium holds. Higher therefore signals a readily soluble substance. Take `COc1ccc([C@@H]2CC(=O)c3c(O)cc(O)cc3O2)cc1O` [HES, ((S)-2,3-dihydro-5,7-dihydroxy-2-(3-hydroxy-4 methoxy-phenyl)-4H-1-benzopyran-4-one)]: in series [1] (n = 6), the AUC(0-t) came to 530 ng·h/mL, the Tmax came out at 0.5 h and the half-life was 3.01 h. Further, the MRT last in series [1] (n = 6, read-out: MRT(0–t)) was 5.86 h. Moreover, the Cmax in series [1] (suspension in water, n = 6) was found to be 120 ng/mL. This molecule also showed a solubility in series [2] (fassgf or other biorelevant, simulated gastrointestinal fluid pH 6.8, 37 °C, HES–PIP maximum at 6 h) of 21.1 µg/mL (≈ 69.9 µM). The amount in solution in series [2] (simulated gastric fluid, simulated gastrointestinal fluid pH 1.2, 37 °C, HES–PIP maximum at 8 h) (solubility) came to 23.1 µg/mL (≈ 76.5 µM).

Values taken from publication PMC8778681, “Crystal Structure, Solubility, and Pharmacokinetic Study on a Hesperetin Cocrystal with Piperine as Coformer” (Pharmaceutics, 2022).
